The record followed here is US8071613B2, “Anti-constipation composition” (Sucampo AG, priority 2000, dated 2011).

One data set deals with intraintestinal content. The experiment in a line: Enteropooling test. It counts as in vivo. The following applies: dose that raises the intraintestinal content by 50%. The text has this: The enteropooling test employed in the present invention is intended to investigate mainly on the action (ii) and/or (iii), which assesses the effect of the drug on the intraintestinal water pool by measuring the volume of the intraintestinal content. The bi-cyclic-halogenated compounds of the present invention may show extremely great enteropooling effect. However, they hardly or slightly cause contraction of intestines which is one of indexes for assessment of the action (iv). Accordingly, the bi-cyclic-halogenated compounds of the present invention are considered to alleviate constipation by mainly acting on intestinal mucosa directly or indirectly to affect transfer of electrolytes and water from intestinal walls into blood vessels and/or from blood vessels into intestines, resulting in reduced water absorption and/or in increased water secretion through the intestines, increased intraintestinal water pool and promoted transfer of the intraintestinal content. Enteropooling tests and diarrhea tests were conducted. The dose that raise the intraintestinal content by 50% was referred to as ED50. [drawing 31] […]

Data set [1] can be described thus: Storage stability at 40° C. dissolved in medium chain fatty acid triglyceride (MCT), content by HPLC. It counts as physicochemical. The following applies: for content of compound, initial / content of compound, 14 days: in MCT (compound 1 0.36 mg/g; compound 2 0.12 mg/g); for content of compound, initial: 40° C.; for content of compound, 14 days: in % (unit assumed). Here is the method: The following compounds 1 and 2 were dissolved in a medium chain fatty acid triglyceride (MCT=mixture of caprylic acid triglyceride and capric acid triglyceride in a ratio of 85:15) in an amount shown in the table below.
(§1) Each of the solutions was placed in a container made of hard glass and stored at 40° C. The time-course content of compound 1 and 2 in the solutions were determined by HPLC method. At the same time, each of compounds 1 and 2 was placed solely (without being dissolved in the solvent) in the container as above, and stored at 40° C. to provide control study.
(2) In the presence of the solvent, the content of the compound was determined as follows by HPLC method.
Based on the value expressed in the above table, an amount of the solution corresponding to 36 μg of compounds 1 and 2 was weighed precisely. Precisely 1.0 mL of an internal standard solution was added, and then ethyl acetate, (liquid chromatograph grade) was added to give a total amount of 10 mL each. Each 0.1 mL of the solution was vacuum concentrated to dryness to give the test preparation.
Each 18 mg of the standard compounds was weighed precisely and admixed with ethyl acetate (liquid chromatograph grade) to give the total amount of exactly 50 mL each. 1.0 mL of the solution and 10.0 mL of the internal standard solution were measured precisely and admixed with ethyl acetate (liquid chromatograph grade) to give a total of 100 mL each. Each 0.1 mL of the solution was vacuum concentrated to dryness to give the standard preparation.
To the test and standard preparations, 0.1 mL of fluorescent labeling reagent and 0.85 mL of fluorescent labeling catalyst were added, respectively, and the mixture was stirred and reacted at room temperature for more than 30 minutes. 0.05 mL aliquots of acetonitrile (liquid chromatograph grade) containing 2% acetic acid were added to the reaction mixtures, respectively, stirred, and then allowed to stand for more than 30 minutes to provide test and standard solutions.
Each 10 μL of the test and standard solution was loaded on liquid chromatograph and determined the content of the respective compounds by internal standard method with one point calibration curve.
(§2) WX: The amount of the compound in the standard preparation (mg)
(§3) QS: Peak area ratio of the compound in the standard preparation to the internal standard.
(§4) QT: Peak area ratio of the compound in the test preparation to the internal standard.
Detector: Fluorescent spectrometer (excitation wavelength 259 nm; fluorescent wavelength 394 nm)
(§5) Column: A stainless tube having about 5 mm of internal diameter and about 25 cm of length, packed with 5 μm octadecylsilyl silica gel for liquid chromatograph
Column temperature: Stable at around 35° C.
Mobile phase: Mixed solution of acetonitrile (liquid chromatograph grade)/methanol (liquid chromatograph grade)/aqueous ammonium acetate (0.05 mol/L) (4:11:5)

Data set [2] in a line: Storage stability at 40° C. without solvent (crystal), content by HPLC. The data set is classed as physicochemical. The conditions noted are these: crystal (no solvent); for content of compound, initial: hard glass container, 40° C. Here is the method: as §1
(1) In the absence of the solvent, the content of the compounds was determined as follows by the HPLC method.
Stored compounds 1 and 2, and standard compounds 1 and 2 were weighed precisely around 0.025 g each, and exactly 5 mL aliquots of internal standard solution were added to the respectively weighed compounds. Test and standard preparations were obtained by adding acetonitrile (liquid chromatograph grade) to give the precise total amount of 10 mL each. Each 10 μL of the test and standard preparations were loaded on liquid chromatograph and determined the content of the compound by internal standard method with one point calibration curve.
as §2
WT: The amount of compound 1 and 2 in the test preparation.
as §3, §4
Detector: Ultraviolet absorption spectrophotometer (wavelength 294 nm)
as §5
Column temperature: Stable around 35° C.
Mobile phase: Mixed solution of acetonitrile (liquid chromatograph grade)/aqueous sodium acetate (0.01 mol/L)/glacial acetic acid (800:200:1)

The nature of data set [3]: Ratio of mono-cyclic/bi-cyclic structure by NMR measurement. The following applies: NMR measurement in CDCl3 solution. It counts as physicochemical. From the text: It has been discovered that in the absence of water, compounds represented by Formula (I) exist predominantly in the form of the bi-cyclic compound. In aqueous media, it is believed that hydrogen bonding occurs between, for example, the ketone position at the C-15 position, thereby hindering bi-cyclic ring formation. In addition, it is believed that the halogen atom(s) at the C-16 position promote bi-cyclic ring formation. The mono-cyclic/bi-cyclic structures, for example, may be present in a ratio of 1:6 in D2O; 1:10 in CD3OD-D2O and 4:96 in CDCl3. Accordingly, a preferable embodiment of the present invention is the composition in which the bi-cyclic form is present in ratio of bi -cyclic/mono-cyclic of least 1:1, and preferably 20:1, or even greater to substantially all bi-cyclic compound; 100% bi-cyclic compound is within this invention.
The biological activity of compositions due to the ratios of mono-cyclic/bi-cyclic structures when Z of general formula (I) is an oxygen atom, and a ketone is present at the C-9 position of the present invention can be seen from the following examples.

The subject of the next data set is healthy male volunteers. The data set can be described thus: Bowel movement after single oral administration to healthy male volunteers. It counts as in vivo, human. Here is the method:
Effect of the Present Invention Dissolved in Medium Chain Fatty Acid Triglyceride on Bowel Movement After Single Oral Administration to Healthy Male Volunteers
3 to 9 healthy male volunteers were treated with a composition containing the following mono-cyclic/bi-cyclic structures (in CDCl3) in a ratio of 4:96.
The test substance (R1 and R2 are F atoms) was dissolved in Panacet 800 (medium chain fatty acid triglyceride manufactured by Nippon Oil & Fat co., Ltd., Amagasaki, Japan) and filled in a capsule (each capsule contains […] of the mixture). Each subject was administered one capsule with 100 mL of water.

Setting [4] is: 5 μg single oral capsule in Panacet 800.
[5] abbreviates: 10 μg single oral capsule in Panacet 800.
The mark [6] stands for this setting: 20 μg single oral capsule in Panacet 800.
Setting [7] is: 30 μg single oral capsule in Panacet 800.

Consider `CCCCC(F)C(=O)CCC1C(O)CC(=O)C1CC=CCCCC(=O)OC` (stereo not shown) [Example D], for which the “Enteropooling activity, ED50” value with intraintestinal content turned out to be 3 µg/kg.

As for `CCCCC(F)(F)C1(O)CC[C@@H]2C(CCCCCCC(=O)O)C(=O)C[C@H]2O1` (stereo partly shown) [compound 1], the “content of compound, 38 days” value in data set [1] (in MCT (compound 1 0.36 mg/g), stored at 40° C., 38 days) is 102.1. In addition, the “content of compound, 90 days” value in data set [1] (in MCT (compound 1 0.36 mg/g), stored at 40° C., 90 days) is reported as 100.9. For the same compound, the content of compound, initial in data set [1] and in data set [2] was 100% throughout. The “content of compound, 14 days” value is 101.4 in data set [1] (stored at 40° C.) and 94.1% in data set [2] (stored at 40° C.). Also, the “content of compound, 7 days” value in data set [2] (stored at 40° C., 7 days) was determined as 97.2. Further, the content of compound, 28 days in data set [2] (stored at 40° C.) was found to be 87.4%.

For `CC[C@H](C)CC(F)(F)C1(O)CC[C@@H]2C(CCCCCCC(=O)O)C(=O)C[C@H]2O1` (stereo partly shown) [compound 2], the content of compound, initial in data set [1] and in data set [2] was 100% in each case. In addition, the “content of compound, 14 days” value amounted to 99.6 in data set [1] (stored at 40° C.) and 75% in data set [2] (stored at 40° C.). Besides, the content of compound, 28 days came out at 98.9% in data set [1] (in MCT (compound 2 0.12 mg/g), stored at 40° C., 28 days) and 53.4% in data set [2] (stored at 40° C.). In data set [1] (in MCT (compound 2 0.12 mg/g), stored at 40° C., 191 days), this compound had a content of compound, 191 days of 99.6%. Besides, in data set [2] (stored at 40° C., 6 days), the content of compound, 6 days amounted to 84.5%.

As for `CCCCCC(=O)CCC1C(O)CC(=O)C1CCCCCCC(=O)O` (stereo not shown) [Comparative Example A, reference compound], in data set [3], the “Ratio of mono-cyclic/bi-cyclic structure” value was “No signal”. Also, in the data set on intraintestinal content, the “Enteropooling activity, ED50” value was found to be 320 µg/kg.

Regarding `CCCCC(F)(F)C1(O)CCC2C(CC(=O)C2CC=CCCCC(=O)OC)O1` (stereo not shown) [Example C], the “Enteropooling activity, ED50” value in the data set with intraintestinal content is 0.3 µg/kg.

Consider `CCCCC(F)C(=O)CCC1C(O)CC(=O)C1CCCCCCC(=O)O` (stereo not shown) [Example B], for which, in the data set with intraintestinal content, the “Enteropooling activity, ED50” value amounted to 2 µg/kg.

For `CCCCC(F)(F)C1(O)CCC2C(CC(=O)C2CCCCCCC(=O)O)O1` (stereo not shown) [Example A], in the data set on intraintestinal content, the “Enteropooling activity, ED50” value stood at 0.6 µg/kg.

As to `CCCCCC(=O)CCC1C(O)CC(=O)C1CC=CCCCC(=O)OC` (stereo not shown) [Comparative Example C, reference compound], the “Enteropooling activity, ED50” value with intraintestinal content came to 220 µg/kg.

`CCCCC(F)(F)C1(O)CCC2C(CC(=O)C2CCCCCCC(=O)O)O1` (stereo not shown) [test substance]: the “Number of Subjects Loose or Diarrhea” value with healthy male volunteers (setting [4]) was 2/3; with healthy male volunteers (setting [5]) it was 2/7; in the data set with healthy male volunteers (setting [6]), 2/3; in the data set on healthy male volunteers (setting [7]), 7/9. For the same compound, the “Number of Subjects Normal” value is 1/3 in the data set with healthy male volunteers (setting [4]), 5/7 in the data set on healthy male volunteers (setting [5]), 1/3 in the data set on healthy male volunteers (setting [6]) and 2/9 in the data set on healthy male volunteers (setting [7]).
